Source: patent US20230183310A1, “Polypeptide Compounds and Use Thereof in the Prevention or Treatment of Diabetes or Diabetic Complications” (Shenzhen Turier Biotech Co., Ltd., priority 2020, published 2023)
*1 amine or outer side, *2 acyl side, *3 side chain or, on linkers, in order; H or OH if unused. Primed or numbered codes have the meaning given here. Where no end group is shown, it is not given here. Side-chain parts run from the residue outwards. [ ]: non-standard residue; d: D form. The star is where a group is joined. C20 diacid = O=C(O)CCCCCCCCCCCCCCCCCCC(=O)*; γGlu = O=C(O)[C@H](CCC(=O)[*:2])N[*:1]; PEG2′ = not defined here; Aib = CC(C)(N)C(=O)O

Columns and labels:
[1] = system: db/db diabetic mice; test: Dose determination in 8-week-old db/db diabetic mice: blood glucose and body weight; format: in vivo; conditions: for subsequent blood glucose course (long-lasting effect): from day 3 / after days 3-5
Description: The db/db mice diabetic model (purchased from Nanjing University-Nanjing Institute of Biomedical Research, about 8 weeks, and blood glucose and body weight were measured to ensure the smooth subsequent experiments) was obtained, and the model mice were randomly divided into 12 groups (including polypeptide compounds 3, 8, 13, 15, semaglutide and physiological saline groups), with 6 mice in each group and no difference in basal body weight and blood glucose. Each group was injected subcutaneously with compound 3 (80 and 120 μg/kg, 2 groups), compound 8 (80 and 120 μg/kg, 2 groups), compound 13 (80 and 120 μg/kg, 2 groups), compound 15 (80 and 120 μg/kg, 2 groups), semaglutide (80 and 120 μg/kg, 2 groups) and physiological saline (DN group: normal mice born in the same litter; DC group: db/db mice control group) every day or every other day.
Blood glucose and body weight of mice were measured after daily administration and 6 h fasting on alternate days.

[2] = system: FN protein (fibronectin); test: Western blot of FN protein in high glucose-induced in vitro renal fibrosis cell model; format: cell-based, rat; conditions: 10 μM; 30 mmol/L glucose; 48 h; mesangial and renal epithelial cells
From the text: Hyperglycemia and increased production of glycosylation end products will cause morphological changes such as proliferation and hypertrophy of glomerular mesangial cells, increase in extracellular matrix (ECM) and mesangial expansion, which will eventually lead to the loss of its physiological function. […] Therefore, this example used high glucose to induce MCS mesangial cells and NRK renal epithelial cells to construct an in vitro renal fibrosis cell model for screening medicaments useful for the treatment of diabetic nephropathy. The renal mesangial cell strain GMC and glomerular epithelial cells mTEC used in this example were both cells kept in the applicant's laboratory (both were extracted from rat renal primary cells) and cultured in low sugar medium containing 10% fetal bovine serum. The cells were starved with serum-free culture medium for 24 h when grew to 70% confluence. The cells were divided into the following 9 groups by adjusting the glucose concentration as follows: […]

[3] = system: C57BL/6J mice; test: Oral glucose tolerance (OGTT), repeated glucose loads followed to 24 h after one s.c. dose; format: in vivo; conditions: four OGTT curves (0-22 h); 100 μg/kg subcutaneously
Description: Eight-week-old male C57BL/6J mice (Model Animal Research Center, Nanjing University) were randomly grouped according to similar blood glucose (assessed by blood samples obtained from the tail tip), with six mice in each group. […] The initial blood samples (fasted blood glucose levels) were obtained after about 4 h. Subsequently, an oral dose of glucose (2 g/kg) was administered and the animals were placed back in their holding cages (t=0). […] The oral dose of glucose was then repeated at 8 h of administration, 12 h of administration and […], and blood glucose changes were detected and followed until 24 hours. The data were processed using the software GraphPadPrism to make a line graph of blood glucose changes, and the area under the curve was calculated to obtain an AUC graph, and the results are shown in FIG. 1.

[4] = system: db/db diabetic mice; test: Treatment of 12-week-old db/db diabetic mice: blood glucose, OGTT, ITT, ALT/AST, diabetic nephropathy indices; format: in vivo; conditions: for weekly blood glucose (hypoglycemic effect): FIG. 4A, blood glucose at normal levels at week 1; for weekly blood glucose (hypoglycemic effect) / improving oral glucose tolerance (OGTT) / improving insulin resistance (ITT) / ALT and AST in serum (hepatoprotective function): 120 μg/kg s.c. daily; for improving oral glucose tolerance (OGTT): FIG. 4B, week 4; for improving insulin resistance (ITT): FIG. 4C, week 5; for ALT and AST in serum (hepatoprotective function): FIG. 4D; for H&E staining of kidneys: glomerular adhesion, ameliorative and therapeutic effects: FIG. 5B; for H&E staining of kidneys: glomerular adhesion, ameliorative and therapeutic effects / PAS staining of kidneys: ameliorative effects on glomerular mesangial region / collagen content (Sirius red, FN and α-SMA staining of kidneys): after 8 weeks; for H&E staining of kidneys: glomerular adhesion, ameliorative and therapeutic effects / collagen content (Sirius red, FN and α-SMA staining of kidneys): compared to semaglutide, SAR425899 and MED C18-acid groups; for PAS staining of kidneys: ameliorative effects on glomerular mesangial region: FIG. 5C; for collagen content (Sirius red, FN and α-SMA staining of kidneys): FIGS. 5D to 5F
Description: Normal mice born in the same litter; DC group: db/db mice control group). Blood glucose and body weight were measured on alternate days after daily administration of the medicament, and water intake and food intake were measured once a week. OGTT was measured at week 4, insulin tolerance (ITT) was measured at week 5, metabolism of mice was examined using mouse metabolic cages at weeks 6-7, and various serological and pathological indices were taken at week 8.
Type 2-diabetes mice were characterized by obesity, insulin resistance, hyperglycemia, dyslipidemia and hepatic fat vacuole-like degeneration.
After 6 weeks of medical treatment, the mice was collected for urine using metabolic cages, and the protein content in the urine was detected using relevant kits. After 7 weeks of medical treatment, the material was taken and blood was used to detect serological indicators such as blood creatinine and urea nitrogen.

[5] = FIG. 3A, daily s.c., 120 μg/kg, vs saline DC group
[6] = FIG. 3B, every other day s.c., 80 μg/kg
[7] = FIG. 3B, every other day s.c., 120 μg/kg

| Substance | body weight (weight-lowering effect) ([1]; FIG. 3A, daily s.c.) | weight-lowering effect relative to compounds 3 and 8 ([1]; FIG. 3A, daily s.c.) | blood glucose (glucose-lowering effect) ([1]; FIG. 3A, daily s.c., 80 μg/kg) | blood glucose (glucose-lowering effect) [1, 5] | effect relative to polypeptide compounds 3 and 8 ([1]; FIG. 3B, every other day s.c.) | overall hypoglycemic effect ([1]; FIG. 3B, every other day s.c.) | blood glucose (hypoglycemic effect) [1, 6] | blood glucose (hypoglycemic effect) [1, 7] | subsequent blood glucose course (long-lasting effect) [1, 7] | FN protein expression (Western blot) [2] | long-acting hypoglycemic effects compared to semaglutide [3] | weekly blood glucose (hypoglycemic effect) [4] | improving oral glucose tolerance (OGTT) [4] | improving insulin resistance (ITT) [4] | ALT and AST in serum (hepatoprotective function) [4] | H&E staining of kidneys: glomerular adhesion, ameliorative and therapeutic effects [4] | PAS staining of kidneys: ameliorative effects on glomerular mesangial region [4] | collagen content (Sirius red, FN and α-SMA staining of kidneys) [4] |
| --- | --- | --- | --- | --- | --- | --- | --- | --- | --- | --- | --- | --- | --- | --- | --- | --- | --- | --- |
| His-(D-Ser)-Gln-Gly-Thr-Phe-Thr-Ser-Asp-Lys(Gly-Gly-Ser-Gly-Ser-Gly-γGlu-CO(CH2)18-COOH)-Ser-Lys-Tyr-Leu-Glu-Aib-Lys-Ala-Ala-Gln-Asp-Phe-Val-Glu-Trp-Leu-Lys-Ala-Gly-Gly-Pro-Ser-Ser-Gly-Ala-Pro-Pro-Pro-Ser (H[dS]QGTFTSDKSKYLE[Aib]KAAQDFVEWLKAGGPSSGAPPPS; not fully specified (residue 10, C-terminus)) [Compound 13] | better weight-lowering effect | superior to that of compounds 3 and 8 | significant glucose-lowering effect with long-lasting effect | good glucose-lowering effect in 3-5 days | better than that of polypeptide compounds 3 and 8 | more excellent hypoglycemic effect | significant hypoglycemic effect on day 3, but the subsequent blood glucose level did not change much and tended to be stable | good hypoglycemic effect on days 3-5 | kept good hypoglycemic effect | inhibited FN expression more significantly | superior and significant long-acting hypoglycemic effects | significant hypoglycemic effects | performed more excellent | performed more excellent | more excellent hepatoprotective functions | more significant | more significant | improved more significantly |
| His-(D-Ser)-Gln-Gly-Thr-Phe-Thr-Ser-Asp-Lys(PEG2-PEG2-γGlu-CO(CH2)18CO2H)-Ser-Lys-Tyr-Leu-Glu-Aib-Lys-Ala-Ala-Gln-Asp-Phe-Val-Glu-Trp-Leu-Lys-Ala-Gly-Gly-Pro-Ser-Ser-Gly-Ala-Pro-Pro-Pro-Ser-NH2 (H[dS]QGTFTSDK([PEG2′-PEG2′-γGlu-C20 diacid])SKYLE[Aib]KAAQDFVEWLKAGGPSSGAPPPS-NH2) [Compound 3] | better weight-lowering effect | – | significant glucose-lowering effect | good glucose-lowering effect in 3-5 days | – | more excellent hypoglycemic effect | first decrease and then increase, and the overall hypoglycemic effect was significant | good hypoglycemic effect on days 3-5 | the blood glucose did not change much | inhibited FN expression more significantly | superior and significant long-acting hypoglycemic effects | significant hypoglycemic effects | performed more excellent | performed more excellent | more excellent hepatoprotective functions | more significant | more significant | improved more significantly |
